Several values for one entry are separate records, joined by “and”; a condition that tells them apart may be missing. Identical values can stand only once. Inconclusive results and toxic doses are left out. How the source made its calls: active means survival T/C of 150% or more; inactive means T/C below 125% in these data.
Tested on: P388 leukemia ip, CD2F1 mice, survival T/C
Test: NCI In Vivo Anticancer Drug Screen. Data for tumor model P388 Leukemia (intraperitoneal) in CD2F1 (CDF1) mice
Settings: endpoint: median survival time, higher = longer survival
Method in brief: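 Mice carrying the transplanted tumor received test compound or vehicle. Survival was recorded in each group, and the value is the treated-group measurement divided by that of the vehicle-treated control group.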

[1] = dose: 12.5 mg/kg/injection, schedule: Q01DX005 (ip), vehicle: saline
[2] = dose: 50.0 mg/kg/injection, schedule: Q01DX009 (ip), vehicle: saline with Tween-80
[3] = dose: 100.0 mg/kg/injection, schedule: Q01DX009 (ip), vehicle: saline with Tween-80
[4] = dose: 200.0 mg/kg/injection, schedule: Q01DX009 (ip), vehicle: saline with Tween-80
[5] = dose: 60.0 mg/kg/injection, schedule: Q01DX005 (ip), vehicle: Klucel (hydroxypropylcellulose) (HPC)
[6] = dose: 120.0 mg/kg/injection, schedule: Q01DX005 (ip), vehicle: Klucel (hydroxypropylcellulose) (HPC)
[7] = dose: 12.5 mg/kg/injection, schedule: Q01DX009 (ip), vehicle: saline with Tween-80

Measured: T/C

C[As](C)SCC1OC(n2ccc(=O)[nH]c2=O)C2OC(C)(C)OC12 (stereo not drawn)
inactive: dose: 12.5 mg/kg/injection, schedule: Q01DX009 (ip), vehicle: distilled water + Tween-80 103 % of control | dose: 25.0 mg/kg/injection, schedule: Q01DX009 (ip), vehicle: distilled water + Tween-80 110 % of control | dose: 50.0 mg/kg/injection, schedule: Q01DX009 (ip), vehicle: distilled water + Tween-80 116 % of control | dose: 100.0 mg/kg/injection, schedule: Q01DX009 (ip), vehicle: distilled water + Tween-80 113 % of control

C[CH2][Hg][S]c1nsc([S][Hg][CH2]C)n1
inactive: dose: 3.13 mg/kg/injection, schedule: Q01DX009 (ip), vehicle: Klucel (hydroxypropylcellulose) (HPC) 94 % of control | dose: 6.25 mg/kg/injection, schedule: Q01DX009 (ip), vehicle: Klucel (hydroxypropylcellulose) (HPC) 118 % of control and 95 % of control | dose: 12.5 mg/kg/injection, schedule: Q01DX009 (ip), vehicle: Klucel (hydroxypropylcellulose) (HPC) 98 % of control and 115 % of control

CCc1ccc[n+](CCC2CNc3ccccc32)c1 (stereo not drawn)
inactive: [1] 98 % of control | dose: 25.0 mg/kg/injection, schedule: Q01DX005 (ip), vehicle: saline 100 % of control | dose: 50.0 mg/kg/injection, schedule: Q01DX005 (ip), vehicle: saline 100 % of control and 110 % of control

COc1ccc(NS(=O)(=O)c2ccc(NCc3c4ccccc4nc4ccccc34)cc2)nn1
inactive: dose: 12.5 mg/kg/injection, schedule: Q04DX002 (ip), vehicle: Klucel (hydroxypropylcellulose) (HPC) 96 % of control | dose: 25.0 mg/kg/injection, schedule: Q04DX002 (ip), vehicle: Klucel (hydroxypropylcellulose) (HPC) 99 % of control | dose: 50.0 mg/kg/injection, schedule: Q04DX002 (ip), vehicle: Klucel (hydroxypropylcellulose) (HPC) 89 % of control | dose: 100.0 mg/kg/injection, schedule: Q04DX002 (ip), vehicle: Klucel (hydroxypropylcellulose) (HPC) 87 % of control | dose: 200.0 mg/kg/injection, schedule: Q04DX002 (ip), vehicle: Klucel (hydroxypropylcellulose) (HPC) 91 % of control | dose: 400.0 mg/kg/injection, schedule: Q04DX002 (ip), vehicle: Klucel (hydroxypropylcellulose) (HPC) 93 % of control

O=c1[nH]nc(NCCCCO)c2ccccc12
inactive: [2] 95 % of control | [3] 95 % of control | [4] 91 % of control

CCCCCCCCCC[CH2][Sn]([CH2]CCCCCCCCCC)([CH2]CCCCCCCCCC)[CH2]CCCCCCCCCC
inactive: dose: 6.25 mg/kg/injection, schedule: Q01DX009 (ip), vehicle: saline 99 % of control | dose: 12.5 mg/kg/injection, schedule: Q01DX009 (ip), vehicle: saline 105 % of control | dose: 25.0 mg/kg/injection, schedule: Q01DX009 (ip), vehicle: saline 99 % of control

CN=C(NCCCOC)c1ccc(NC(=O)c2ccc(C(=O)Nc3ccc(C(=NC)NCCCOC)cc3)cc2)cc1
inactive: dose: 5.0 mg/kg/injection, schedule: Q01DX009 (ip), vehicle: saline 118 % of control | dose: 5.0 mg/kg/injection, schedule: Q04DX003 (ip), vehicle: saline 100 % of control | dose: 10.0 mg/kg/injection, schedule: Q01DX009 (ip), vehicle: saline 122 % of control | dose: 10.0 mg/kg/injection, schedule: Q04DX003 (ip), vehicle: saline 100 % of control | dose: 20.0 mg/kg/injection, schedule: Q01DX009 (ip), vehicle: saline 90 % of control | dose: 20.0 mg/kg/injection, schedule: Q04DX003 (ip), vehicle: saline 95 % of control

CCn1c(=N)sc2nc3ccccc3n2c1=O
inactive: [5] 103 % of control | [6] 103 % of control

NC(=O)c1ccc(N=Nc2c(O)c3ccccc3[nH]c2=O)cc1
inactive: dose: 50.0 mg/kg/injection, schedule: Q01DX005 (ip), vehicle: saline + Tween-80 + alcohol 105 % of control | dose: 100.0 mg/kg/injection, schedule: Q01DX005 (ip), vehicle: saline + Tween-80 + alcohol 93 % of control | dose: 200.0 mg/kg/injection, schedule: Q01DX005 (ip), vehicle: saline + Tween-80 + alcohol 89 % of control

COC1=CC(=Nc2ccc(N(C)C)cc2)C=CC1=O
inactive: dose: 3.12 mg/kg/injection, schedule: Q01DX005 (ip), vehicle: saline 106 % of control | dose: 6.25 mg/kg/injection, schedule: Q01DX005 (ip), vehicle: saline 109 % of control | [1] 106 % of control

COc1ccc(OC)c(C=Nc2ccc(S(=O)(=O)Nc3nccc(C)n3)cc2)c1
inactive: [7] 90 % of control | dose: 25.0 mg/kg/injection, schedule: Q01DX009 (ip), vehicle: saline with Tween-80 90 % of control | [2] 87 % of control | [4] 100 % of control

O=S(=O)(c1ccccc1)N(Cl)Cl
inactive: dose: 6.25 mg/kg/injection, schedule: Q01DX009 (ip), vehicle: saline with Tween-80 102 % of control and 104 % of control and 123 % of control | [7] 104 % of control and 120 % of control and 93 % of control | [2] 111 % of control

Cn1nnn(Cc2ccccc2)/c1=N/C(=S)Nc1ccccc1
inactive: dose: 100.0 mg/kg/injection, schedule: Q01DX001 (ip), vehicle: Klucel (hydroxypropylcellulose) (HPC) 99 % of control | dose: 200.0 mg/kg/injection, schedule: Q01DX001 (ip), vehicle: Klucel (hydroxypropylcellulose) (HPC) 95 % of control | dose: 400.0 mg/kg/injection, schedule: Q01DX001 (ip), vehicle: Klucel (hydroxypropylcellulose) (HPC) 86 % of control

Cc1cc(C)c(C2=NO[C@H]3c4ccccc4OC[C@@H]23)c(C)c1
inactive: dose: 50.0 mg/kg/injection, schedule: Q01DX005 (ip), vehicle: Klucel (hydroxypropylcellulose) (HPC) 105 % of control | dose: 100.0 mg/kg/injection, schedule: Q01DX005 (ip), vehicle: Klucel (hydroxypropylcellulose) (HPC) 96 % of control | dose: 200.0 mg/kg/injection, schedule: Q01DX005 (ip), vehicle: Klucel (hydroxypropylcellulose) (HPC) 89 % of control

O=C(O)C(=O)O.O=C(O)C(=O)O.O=C(O)C(=O)O.[Rh]
inactive: dose: 200.0 mg/kg/injection, schedule: Q04DX003 (ip), vehicle: water 95 % of control

CSc1nc(N)c2cnn(Cc3ccccc3)c2n1
inactive: dose: 100.0 mg/kg/injection, schedule: Q01DX001 (ip), vehicle: saline with Tween-80 102 % of control | dose: 200.0 mg/kg/injection, schedule: Q01DX001 (ip), vehicle: saline with Tween-80 100 % of control | dose: 400.0 mg/kg/injection, schedule: Q01DX001 (ip), vehicle: saline with Tween-80 94 % of control

COC(=O)c1[nH]c(=O)c(C#N)c(C(=O)OC)c1C(=O)c1ccc2ccccc2c1
inactive: [5] 90 % of control | [6] 88 % of control | dose: 240.0 mg/kg/injection, schedule: Q01DX005 (ip), vehicle: Klucel (hydroxypropylcellulose) (HPC) 97 % of control

CCOc1ccc(C(CC(=O)O)CC(=O)N(CCCl)CCCl)cc1 (stereo not drawn)
inactive: dose: 100.0 mg/kg/injection, schedule: Q04DX003 (ip), vehicle: suspension in saline 101 % of control | dose: 200.0 mg/kg/injection, schedule: Q04DX003 (ip), vehicle: suspension in saline 102 % of control | dose: 400.0 mg/kg/injection, schedule: Q04DX003 (ip), vehicle: suspension in saline 105 % of control

COc1ccccc1N1CCN(c2nc(NC(=O)c3ccccc3)nn2C)CC1
inactive: [5] 112 % of control | [6] 87 % of control

Cc1cc(SCC(=O)c2ccc(Br)cc2)cc(C)[o+]1
inactive: [2] 100 % of control | [3] 86 % of control | dose: 100.0 mg/kg/injection, schedule: Q04DX003 (ip), vehicle: saline with Tween-80 104 % of control | dose: 200.0 mg/kg/injection, schedule: Q04DX003 (ip), vehicle: saline with Tween-80 114 % of control

CCOC(=O)NC(NC(=O)OCC)c1cccc([N+](=O)[O-])c1
inactive: dose: 100.0 mg/kg/injection, schedule: Q04DX003 (ip), vehicle: saline 91 % of control | dose: 200.0 mg/kg/injection, schedule: Q04DX003 (ip), vehicle: saline 95 % of control | dose: 400.0 mg/kg/injection, schedule: Q04DX003 (ip), vehicle: saline 91 % of control

Source: PubChem BioAssay AID330 (DTP/NCI, 2004)
